The values that follow come from PMC5513865 (British Journal of Pharmacology, 2017).

In data set [1] the test system is C57BL/6J wild-type mice. Put plainly: Rotorod assay to determine locomotor activity. The data set is classed as in vivo, mouse. The following applies: i.c.v., HS665 10 nmol, HS666 30 nmol (ED90); 10-60 min.
The subject of data set [2] is C57BL/6J wild-type mice. The settings on record: mouse, in vivo.
The test system of data set [3] is C57BL/6J wild-type mice. The following applies: mouse, in vivo. The source holds these as a separate data set.
Data set [4] deals with T1, human μ receptor (Homo sapiens, UniProt P35372).
T1 construct: expressed in transfected cells
Put plainly: [35S]-GTPγS binding assay, CHO-hμ membranes. The settings on record: at concentrations up to 10 μM. The data set is classed as biochemical. On the technique in general: GTPγS resists hydrolysis and so accumulates on activated G proteins.

In data set [5] the target is T2, human NOP receptor (Homo sapiens, UniProt P41146).
T2 construct: expressed in transfected cells
Put plainly: [3H]-N/OFQ NOP receptor binding assay, CHO-hNOP membranes. The settings on record: up to a concentration of 10 μM.

For data set [6], the system named is μ receptor gene-disrupted 'knockout' (μ-KO) mice. The following applies: mouse, in vivo.
Data set [7] has as its system human κ receptor.
Data set [8] has as its system mice. Also noted: method as in Spetea et al., 2012. The settings on record: s.c., ref Spetea et al., 2012; cited from earlier work.
Data set [9] has as its system κ receptor gene-disrupted 'knockout' (κ-KO) mice. The following applies: mouse, in vivo.
Data set [10] concerns the target T3, human κ receptor (Homo sapiens, UniProt P41145). In words: cell-based. The data set is classed as cell-based. Details: host or cells: U2OS (U2OS–hκ receptor–β‐arrestin2 cells), PathHunter eXpress.
For data set [11], the target named is δ receptor. Also noted: method as in Spetea et al., 2012. The settings on record: ref Spetea et al., 2012; read-out: binding affinity for the δ receptor; cited from earlier work.
The target of data set [12] is human κ receptor. Also noted: method as in Spetea et al., 2012. The following applies: ref Spetea et al., 2012, read-out: binding affinity (Ki) for the κ receptor; cited from earlier work.
The target in data set [13] is μ receptor. Details: method as in Spetea et al., 2012. The settings on record: ref Spetea et al., 2012; read-out: binding affinity (Ki) for the μ receptor; cited from earlier work.
The target of data set [14] is T3, human κ receptor. In words: biochemical. The data set is classed as biochemical. Details: expressed in transfected cells.
Data set [15] has as its system C57BL/6J wild-type mice. Details: method as in Aldrich et al., 2014. The settings on record: i.c.v.; ref Aldrich et al., 2014; cited from earlier work.

Where “and” joins values, the source holds several entries; their conditions need not be identical. Equal values may be shown once. Where a name gives a salt, the structure may show the parent alone.

T3 sequence (P41145 whole entry): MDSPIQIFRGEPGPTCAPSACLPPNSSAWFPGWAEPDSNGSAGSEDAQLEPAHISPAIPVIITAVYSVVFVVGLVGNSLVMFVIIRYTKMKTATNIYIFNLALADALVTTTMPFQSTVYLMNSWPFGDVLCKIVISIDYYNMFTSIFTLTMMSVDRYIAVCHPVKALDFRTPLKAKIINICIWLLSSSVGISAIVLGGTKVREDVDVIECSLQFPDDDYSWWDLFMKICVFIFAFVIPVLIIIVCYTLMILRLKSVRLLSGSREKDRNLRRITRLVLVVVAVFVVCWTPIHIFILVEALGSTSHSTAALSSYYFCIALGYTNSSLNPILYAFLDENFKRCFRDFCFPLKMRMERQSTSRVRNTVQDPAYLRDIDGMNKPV
T1 sequence (P35372 whole entry): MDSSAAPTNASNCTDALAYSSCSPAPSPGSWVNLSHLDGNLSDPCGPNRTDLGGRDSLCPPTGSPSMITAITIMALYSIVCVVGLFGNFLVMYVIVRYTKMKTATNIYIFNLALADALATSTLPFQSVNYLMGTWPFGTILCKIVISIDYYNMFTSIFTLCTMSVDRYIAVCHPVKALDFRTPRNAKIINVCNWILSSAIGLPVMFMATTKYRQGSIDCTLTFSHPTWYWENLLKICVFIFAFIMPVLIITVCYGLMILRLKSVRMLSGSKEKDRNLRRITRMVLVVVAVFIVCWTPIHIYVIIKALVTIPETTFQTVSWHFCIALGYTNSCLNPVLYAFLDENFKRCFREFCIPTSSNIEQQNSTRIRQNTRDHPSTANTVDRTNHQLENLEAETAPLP
T2 sequence (P41146 whole entry): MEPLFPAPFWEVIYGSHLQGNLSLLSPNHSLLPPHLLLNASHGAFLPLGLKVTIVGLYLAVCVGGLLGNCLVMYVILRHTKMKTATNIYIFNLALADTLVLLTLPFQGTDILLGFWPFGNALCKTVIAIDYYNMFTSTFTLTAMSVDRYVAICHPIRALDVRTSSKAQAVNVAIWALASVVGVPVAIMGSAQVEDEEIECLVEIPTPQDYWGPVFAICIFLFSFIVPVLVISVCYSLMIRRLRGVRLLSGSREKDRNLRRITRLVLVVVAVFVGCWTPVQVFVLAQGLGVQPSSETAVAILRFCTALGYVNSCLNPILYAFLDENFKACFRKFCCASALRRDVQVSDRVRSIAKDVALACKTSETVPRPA

Take `Oc1cccc(CCN(CCc2ccccc2)CC2CCC2)c1` [HS665]: the “effect on motor performance (latency to fall)” value in data set [1] is “did not significantly impact motor performance”. In addition, in data set [2], the “% antinociception” value is on record as 1.97 ± 1.18%; the “antinociceptive ED50 and 95% C.I.” value was 3.99 (3.14 – 5.33) nmol and 4.74 (3.72 – 6.41) nmol and 3.74 (2.98–4.78) nmol and 3.74 nmol. Also, the “conditioned place preference or aversion” value in data set [3] is listed as “significant place aversion”. In addition, the “G protein activation (agonist activity) at the μ receptor” value in data set [4] is on record as “no agonist activity”. For the same molecule, the “affinity for the NOP receptor” value in [5] is “no significant affinity”. The “antinociceptive activity in μ-KO mice compared with wild-type” value in data set [6] is on record as “not statistically altered”. Moreover, the “bias factor (G protein over β-arrestin2)” value in data set [7] is reported as 389. In [8], the “κ receptor-mediated antinociceptive effects in the writhing test” value is “comparable with U50,488”.
With `Oc1cccc(CCN(CCc2ccccc2)CC2CC2)c1` [HS666], in data set [1], the “effect on motor performance (latency to fall)” value was “did not significantly impact motor performance”. Further, the “% antinociception” value in [2] was determined as 1.00 ± 0.48%. Also, the “antinociceptive activity in κ-KO mice compared with wild-type” value in data set [9] is listed as “no antinociceptive activity”. For the same molecule, in data set [3], the “conditioned place preference or aversion” value was “neither significant preference nor aversion”. In data set [4], the “G protein activation (agonist activity) at the μ receptor” value was “no agonist activity”. In data set [10], the concentration giving a half-maximal response (EC50) (commonly the concentration at which the effect is half-maximal) worked out at 449 ± 56 nM and the “log(τ/KA) β-arrestin2” value turned out to be 3.52 ± 0.02. Also, the Emax – broadly, the size of the effect at its maximum, as opposed to the concentration needed – in data set [10] (read-out: β-arrestin2 recruitment Emax) was found to be 24 ± 1%. The “affinity for the NOP receptor” value in [5] is “no significant affinity”. Besides, the “antinociceptive activity in μ-KO mice compared with wild-type” value in data set [6] is given as “not statistically altered”. Also, the Ki in data set [11] is more than 10000 nM. Besides, in [7], the “bias factor (G protein over β-arrestin2)” value amounted to 62; the “fold decrease in potency, [35S]-GTPγS assay versus PathHunter assay” value amounted to 13 fold; the “ΔΔlog(τ/KA) G protein - β-arrestin2” value was determined as 1.79. In addition, the Ki in data set [12] is 5.9 nM. Besides, the Ki in [13] is 826 nM. In data set [14], the midpoint of the response, the EC50, lay at 35.7 ± 6 nM; the “agonist-stimulated [35S]-GTPγS binding in the presence of nor-BNI” value was “significantly antagonized”; the “inhibition of U69,593-stimulated [35S]-GTPγS coupling” value was “partially blocks”; the “log(τ/KA) G protein” value worked out at 5.73 ± 0.29. The Emax in data set [14] (read-out: G protein coupling Emax) was 50 ± 4%.
For `CN1CC[C@]23c4c5ccc(O)c4O[C@H]2[C@@H](O)C=C[C@H]3[C@H]1C5` [morphine, morphine sulfate, reference compound], the “conditioned place preference or aversion” value in data set [3] was “significant CPP”. Also, the “antinociceptive ED50” value in [15] is listed as 2.35 nmol.
As for `Oc1ccc2c3c1O[C@H]1c4[nH]c5c(c4C[C@@]4(O)[C@@H](C2)N(CC2CC2)CC[C@]314)C[C@@]1(O)[C@H]2Cc3ccc(O)c4c3[C@@]1(CCN2CC1CC1)[C@H]5O4` [nor-BNI, nor‐binaltorphimine, reference compound], the “inhibition of U69,593-stimulated [35S]-GTPγS coupling” value in [14] was “completely blocks coupling”.
